Reference: ChEMBL document CHEMBL5543068, “Mitochondrial targeting derivatives of honokiol enhanced selective antitumor activity in NCI-H446 cells and decreased in vivo toxicity in Caenorhabditis elegans” (Eur J Med Chem, 2024)
Active and inactive are the calls of the source. The rule behind the calls is not given here.

Columns and labels:
[1] = Cytotoxicity against HBE (human bronchial epithelial) cells assessed as reduction in cell viability incubated for 48 hrs by MTT assay; format: toxicity, cell-based
NCI-H446 [2] = test: Antiproliferative activity against human NCI-H446 cells assessed as reduction in cell viability incubated for 48 hrs by MTT assay; format: functional, cell-based; conditions: NCI-H446, 48 h
A549 = test: Antiproliferative activity against human A549 cells assessed as reduction in cell viability incubated for 48 hrs by MTT assay; format: functional, cell-based; conditions: A549, 48 h
[3] = Cytotoxicity against human HL7702 cells assessed as reduction in cell viability incubated for 48 hrs by MTT assay; format: toxicity, cell-based; conditions: HL7702 (L02) cells
HepG2 = test: Antiproliferative activity against human HepG2 cells assessed as reduction in cell viability incubated for 48 hrs by MTT assay; format: functional, cell-based; conditions: HepG2, 48 h
NCI-H446 [4] = test: Induction of apoptosis in human NCI-H446 cells assessed as crumpled nuclei at 2 uM incubated for 24 hrs by DAPI staining based fluorescence inverted microscopic analysis; format: functional, cell-based
[5] = Selectivity index, ratio of IC50 for cytotoxicity against HBE (human bronchial epithelial) cells to IC50 for antiproliferative activity against human NCI-H446 cells; format: toxicity, cell-based; conditions: HBE (human bronchial epithelial) cells versus NCI-H446 cells, read-out: Ratio IC50

Structure (SMILES) | IC50 (NCI-H446 [2]) | IC50 (A549) | IC50 (HepG2) | IC50 at 48 h [1] | IC50 at 48 h [3] | Activity (NCI-H446 [4]) | selectivity ratio [5]
C=CCc1ccc(OCCCCCCOC(=O)Cc2c3[n+](cc4c(OC)c(OC)ccc24)CCc2cc4c(cc2-3)OCO4)c(-c2ccc(OCCC)c(CC=C)c2)c1 | 2.37 µM | 3.41 µM | 1.82 µM | 7.08 µM | 5.7 µM |  | 
C=CCc1ccc(OCCC)c(-c2ccc(OC(=O)Cc3c4[n+](cc5c(OC)c(OC)ccc35)CCc3cc5c(cc3-4)OCO5)c(CC=C)c2)c1 | 5.06 µM | 5.98 µM | 3.02 µM | 17.9 µM | 3.39 µM |  | 
C=CCc1ccc(OCCCOC(=O)Cc2c3[n+](cc4c(OC)c(OC)ccc24)CCc2cc4c(cc2-3)OCO4)c(-c2ccc(OC)c(CC=C)c2)c1 | 7.08 µM | > 10 µM | 6.6 µM | 19.4 µM | 6.5 µM |  | 
C=CCc1ccc(OCCC)c(-c2ccc(OCCCOC(=O)Cc3c4[n+](cc5c(OC)c(OC)ccc35)CCc3cc5c(cc3-4)OCO5)c(CC=C)c2)c1 | 2.44 µM | 3.5 µM | 2.23 µM | 6.7 µM | 3.39 µM |  | 
CCCCCCOC(=O)Cc1c2[n+](cc3c(OC)c(OC)ccc13)CCc1cc3c(cc1-2)OCO3 | 13 µM | 6.11 µM | > 10 µM | 10.6 µM | 19 µM |  | 
CCCCCCCCCCCCc1c2[n+](cc3c(OC)c(OC)ccc13)CCc1cc3c(cc1-2)OCO3 | 0.65 µM | 0.86 µM | 2.72 µM | 1.23 µM | 2.78 µM |  | 
CCCCCCCCc1c2[n+](cc3c(OC)c(OC)ccc13)CCc1cc3c(cc1-2)OCO3 | 2.65 µM | 1.72 µM | 18.7 µM | 0.79 µM | 14.7 µM |  | 
C=CCc1ccc(OCCCOC(=O)Cc2c3[n+](cc4c(OC)c(OC)ccc24)CCc2cc4c(cc2-3)OCO4)c(-c2ccc(OCCC)c(CC=C)c2)c1 | 3.74 µM | 5.82 µM | 3.87 µM | 9.5 µM | 2.6 µM |  | 
CCCCCCCCCCc1c2[n+](cc3c(OC)c(OC)ccc13)CCc1cc3c(cc1-2)OCO3 | 0.83 µM | 1.18 µM | 13.3 µM | 1.52 µM | 3.8 µM |  | 
CCCOC(=O)Cc1c2[n+](cc3c(OC)c(OC)ccc13)CCc1cc3c(cc1-2)OCO3 | > 10 µM | 15.9 µM | > 30 µM | > 30 µM | > 30 µM |  | 
C=CCc1ccc(OCCCCCCCCCCOC(=O)Cc2c3[n+](cc4c(OC)c(OC)ccc24)CCc2cc4c(cc2-3)OCO4)c(-c2ccc(OC)c(CC=C)c2)c1 | 3.01 µM | 1.88 µM | 1.94 µM | 5.83 µM | 5 µM |  | 
C=CCc1ccc(OC(=O)Cc2c3[n+](cc4c(OC)c(OC)ccc24)CCc2cc4c(cc2-3)OCO4)c(-c2ccc(OCCC)c(CC=C)c2)c1 | 5.17 µM | 4.12 µM | 2.23 µM | 7.08 µM | 3.8 µM |  | 
C=CCc1ccc(OC)c(-c2ccc(OC(=O)Cc3c4[n+](cc5c(OC)c(OC)ccc35)CCc3cc5c(cc3-4)OCO5)c(CC=C)c2)c1 | 4.72 µM | 5.5 µM | 2.85 µM | 16.1 µM | 4.21 µM |  | 
COc1ccc2cc3[n+](cc2c1OC)CCc1cc2c(cc1-3)OCO2 [BERBERINE CHLORIDE] | > 50 µM | > 50 µM | > 50 µM | > 50 µM | > 50 µM |  | 
CCCCCCCCCCOC(=O)Cc1c2[n+](cc3c(OC)c(OC)ccc13)CCc1cc3c(cc1-2)OCO3 | 1.72 µM | 1.53 µM | 4.23 µM | 4.35 µM | 3.83 µM |  | 
C=CCc1ccc(OC)c(-c2ccc(OCCCCCCCCCCOC(=O)Cc3c4[n+](cc5c(OC)c(OC)ccc35)CCc3cc5c(cc3-4)OCO5)c(CC=C)c2)c1 | 1.57 µM | 2.7 µM | 2.4 µM | 5.01 µM | 2.01 µM |  | 
C=CCc1ccc(OCCC)c(-c2ccc(OCCCCCCCCCCOC(=O)Cc3c4[n+](cc5c(OC)c(OC)ccc35)CCc3cc5c(cc3-4)OCO5)c(CC=C)c2)c1 | 7.87 µM | 6.21 µM | 7.89 µM | 10.7 µM | 4.39 µM |  | 
C=CCc1ccc(OC)c(-c2ccc(OCCCOC(=O)Cc3c4[n+](cc5c(OC)c(OC)ccc35)CCc3cc5c(cc3-4)OCO5)c(CC=C)c2)c1 | 3.53 µM | 7.74 µM | 3.14 µM | 21.6 µM | 4.76 µM |  | 3.53
C=CCc1ccc(OC(=O)Cc2c3[n+](cc4c(OC)c(OC)ccc24)CCc2cc4c(cc2-3)OCO4)c(-c2ccc(OC)c(CC=C)c2)c1 | 3.22 µM | 5.52 µM | 2.67 µM | 8.14 µM | 5 µM |  | 
C=CCc1ccc(OCCCCCCCCCCOC(=O)Cc2c3[n+](cc4c(OC)c(OC)ccc24)CCc2cc4c(cc2-3)OCO4)c(-c2ccc(OCCC)c(CC=C)c2)c1 | 5.45 µM | 4.32 µM | 4.16 µM | 17.5 µM | 3.96 µM |  | 
C[n+]1ccc(/C=C/c2c[nH]c3ccccc23)cc1 | > 60 µM | > 60 µM | > 60 µM | > 60 µM | > 60 µM |  | 

Second part, led by results:

IC50 (NCI-H446 [2]) | IC50 (A549) | IC50 (HepG2) | Structure (SMILES) | IC50 at 48 h [1] | IC50 at 48 h [3] | Activity (NCI-H446 [4]) | selectivity ratio [5]
1.74 µM | 1.69 µM | 1.14 µM | C=CCc1ccc(OCCC[n+]2ccc(/C=C/c3c[nH]c4ccccc34)cc2)c(-c2ccc(OCCC)c(CC=C)c2)c1 | 9.47 µM | 1.77 µM |  | 
1.4 µM | 2.87 µM | 1.74 µM | C=CCc1ccc(OC)c(-c2ccc(OCCCCCCOC(=O)Cc3c4[n+](cc5c(OC)c(OC)ccc35)CCc3cc5c(cc3-4)OCO5)c(CC=C)c2)c1 | 5.09 µM | 4.37 µM |  | 
3.01 µM | 5.69 µM | 3.37 µM | C=CCc1ccc(OCCCCCCCCCC[n+]2ccc(/C=C/c3c[nH]c4ccccc34)cc2)c(-c2ccc(OC)c(CC=C)c2)c1 | 7.47 µM | 4.03 µM |  | 
3.28 µM | 4.93 µM | 2.35 µM | C=CCc1ccc(OCCCCCC[n+]2ccc(/C=C/c3c[nH]c4ccccc34)cc2)c(-c2ccc(OCCC)c(CC=C)c2)c1 | 11.1 µM | 2.34 µM |  | 
5.21 µM | 10.6 µM | 2.73 µM | C=CCc1ccc(OC)c(-c2ccc(OCCCCCCCCCC[n+]3ccc(/C=C/c4c[nH]c5ccccc45)cc3)c(CC=C)c2)c1 | 13.5 µM | 7.09 µM |  | 
2.7 µM | 2.54 µM | 1.79 µM | C=CCc1ccc(OCCCCCC[n+]2ccc(/C=C/c3c[nH]c4ccccc34)cc2)c(-c2ccc(OC)c(CC=C)c2)c1 | 6.17 µM | 3.88 µM |  | 
2.88 µM | 2.04 µM | 2.03 µM | C=CCc1ccc(OCCC)c(-c2ccc(OCCCCCC[n+]3ccc(/C=C/c4c[nH]c5ccccc45)cc3)c(CC=C)c2)c1 | 7.78 µM | 1.85 µM | Active | 
7.57 µM | 8.07 µM | 5.23 µM | C=CCc1ccc(OCCCCCCCCCC[n+]2ccc(/C=C/c3c[nH]c4ccccc34)cc2)c(-c2ccc(OCCC)c(CC=C)c2)c1 | 17.3 µM | 6.98 µM |  | 
1.56 µM | 1.59 µM | 1.38 µM | C=CCc1ccc(OCCC)c(-c2ccc(OCCCCCCOC(=O)Cc3c4[n+](cc5c(OC)c(OC)ccc35)CCc3cc5c(cc3-4)OCO5)c(CC=C)c2)c1 | 3.59 µM | 4.28 µM |  | 
6.34 µM | 5.32 µM | 4.53 µM | C=CCc1ccc(OC)c(-c2ccc(OCCC[n+]3ccc(/C=C/c4c[nH]c5ccccc45)cc3)c(CC=C)c2)c1 | 20.4 µM | 8.12 µM |  | 
3.29 µM | 3.27 µM | 1.75 µM | C=CCc1ccc(OCCC[n+]2ccc(/C=C/c3c[nH]c4ccccc34)cc2)c(-c2ccc(OC)c(CC=C)c2)c1 | 9.84 µM | 4.62 µM |  | 
6.51 µM | 9.45 µM | 8.13 µM | C=CCc1ccc(OCCC)c(-c2ccc(OCCCCCCCCCC[n+]3ccc(/C=C/c4c[nH]c5ccccc45)cc3)c(CC=C)c2)c1 | 16.5 µM | 12.3 µM |  | 
3.02 µM | 3.38 µM | 2.68 µM | C=CCc1ccc(OC)c(-c2ccc(OCCCCCC[n+]3ccc(/C=C/c4c[nH]c5ccccc45)cc3)c(CC=C)c2)c1 | 20.4 µM | 3.56 µM |  | 
3.37 µM | 3.44 µM | 2.39 µM | C=CCc1ccc(OCCCCCCOC(=O)Cc2c3[n+](cc4c(OC)c(OC)ccc24)CCc2cc4c(cc2-3)OCO4)c(-c2ccc(OC)c(CC=C)c2)c1 | 7.06 µM | 5.7 µM |  | 
